Assay results from paper PMC4685510, “A Cell Biologist’s Field Guide to Aurora Kinase Inhibitors” (Frontiers in Oncology, 2015).

Key:
Assay in all cases: biochemical
Format in all cases: biochemical
[1] = target: T1, 363 human kinases (including Aurora A/B/C) (Homo sapiens, UniProt Q86YV6); settings: MYLK4; for remaining activity at 0.1 µM: 100 nM; for remaining activity at 0.1 µM / remaining activity at 0.5 µM: read-out: % Enzyme Activity (relative to DMSO controls)
T1 sequence (Q86YV6 1-388): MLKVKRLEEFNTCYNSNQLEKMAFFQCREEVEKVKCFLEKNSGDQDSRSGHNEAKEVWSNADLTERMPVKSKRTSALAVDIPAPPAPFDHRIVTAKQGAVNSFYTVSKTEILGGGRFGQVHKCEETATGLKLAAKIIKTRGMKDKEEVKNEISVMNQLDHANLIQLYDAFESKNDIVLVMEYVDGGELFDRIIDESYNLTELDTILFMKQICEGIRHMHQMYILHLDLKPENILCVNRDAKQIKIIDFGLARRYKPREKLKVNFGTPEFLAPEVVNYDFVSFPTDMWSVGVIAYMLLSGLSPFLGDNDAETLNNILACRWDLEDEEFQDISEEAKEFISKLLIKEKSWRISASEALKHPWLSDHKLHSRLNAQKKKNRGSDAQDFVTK
Description: (§1) However, the Aurora A/B selectivity ratios derived from our in vitro and in vivo data can be compared to prioritize inhibitors.

[2] = target: 363 human kinases (including Aurora A/B/C) (Homo sapiens, UniProt Q04912); settings: RON/MST1R; for remaining activity at 0.1 µM: 100 nM; for remaining activity at 0.1 µM / remaining activity at 0.5 µM: read-out: % Enzyme Activity (relative to DMSO controls)
Description: as §1

[3] = target: T2, 363 human kinases (including Aurora A/B/C) (Homo sapiens, UniProt Q9NRM7); settings: LATS2; for remaining activity at 0.1 µM: 100 nM; for remaining activity at 0.1 µM / remaining activity at 0.5 µM: read-out: % Enzyme Activity (relative to DMSO controls)
T2 sequence (Q9NRM7 1-1088): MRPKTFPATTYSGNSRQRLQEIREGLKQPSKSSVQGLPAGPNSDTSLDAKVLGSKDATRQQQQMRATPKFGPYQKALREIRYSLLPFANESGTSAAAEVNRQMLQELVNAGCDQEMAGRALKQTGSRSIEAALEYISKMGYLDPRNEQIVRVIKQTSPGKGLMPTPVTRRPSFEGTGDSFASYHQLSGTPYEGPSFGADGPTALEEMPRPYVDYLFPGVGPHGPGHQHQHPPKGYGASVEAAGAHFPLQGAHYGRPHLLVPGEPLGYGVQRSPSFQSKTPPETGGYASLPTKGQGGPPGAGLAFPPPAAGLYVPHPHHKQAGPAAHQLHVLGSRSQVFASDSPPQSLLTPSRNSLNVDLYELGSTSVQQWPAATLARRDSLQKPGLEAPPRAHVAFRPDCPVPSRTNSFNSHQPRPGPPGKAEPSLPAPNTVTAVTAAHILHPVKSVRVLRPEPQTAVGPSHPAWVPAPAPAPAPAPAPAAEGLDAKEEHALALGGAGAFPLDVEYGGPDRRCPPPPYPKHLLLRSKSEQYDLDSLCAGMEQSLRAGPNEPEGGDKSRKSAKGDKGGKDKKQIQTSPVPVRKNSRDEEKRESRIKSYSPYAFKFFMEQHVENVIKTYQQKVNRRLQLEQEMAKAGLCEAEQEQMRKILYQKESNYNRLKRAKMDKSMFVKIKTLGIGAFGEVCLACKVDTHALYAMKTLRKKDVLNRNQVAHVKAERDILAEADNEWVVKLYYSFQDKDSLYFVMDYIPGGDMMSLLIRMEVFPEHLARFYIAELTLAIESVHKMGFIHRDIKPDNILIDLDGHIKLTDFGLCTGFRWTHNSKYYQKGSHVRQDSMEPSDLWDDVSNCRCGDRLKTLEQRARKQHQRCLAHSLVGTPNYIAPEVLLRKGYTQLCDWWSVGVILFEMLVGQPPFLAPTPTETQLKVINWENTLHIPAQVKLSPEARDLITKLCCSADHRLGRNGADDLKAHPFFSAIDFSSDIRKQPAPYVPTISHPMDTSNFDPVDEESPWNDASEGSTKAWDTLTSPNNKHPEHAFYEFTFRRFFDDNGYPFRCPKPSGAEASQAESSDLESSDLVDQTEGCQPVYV
Description: as §1

[4] = target: 363 human kinases (including Aurora A/B/C) (Homo sapiens, UniProt P09619); settings: PDGFRb; for remaining activity at 0.1 µM: 100 nM; for remaining activity at 0.1 µM / remaining activity at 0.5 µM: read-out: % Enzyme Activity (relative to DMSO controls)
Description: as §1

[5] = target: T3, 363 human kinases (including Aurora A/B/C) (Homo sapiens, UniProt Q09013); settings: DMPK, [ATP] 15 µM; for remaining activity at 0.1 µM: 100 nM; for remaining activity at 0.1 µM / remaining activity at 0.5 µM: read-out: % Enzyme Activity (relative to DMSO controls)
T3 sequence (Q09013 1-629): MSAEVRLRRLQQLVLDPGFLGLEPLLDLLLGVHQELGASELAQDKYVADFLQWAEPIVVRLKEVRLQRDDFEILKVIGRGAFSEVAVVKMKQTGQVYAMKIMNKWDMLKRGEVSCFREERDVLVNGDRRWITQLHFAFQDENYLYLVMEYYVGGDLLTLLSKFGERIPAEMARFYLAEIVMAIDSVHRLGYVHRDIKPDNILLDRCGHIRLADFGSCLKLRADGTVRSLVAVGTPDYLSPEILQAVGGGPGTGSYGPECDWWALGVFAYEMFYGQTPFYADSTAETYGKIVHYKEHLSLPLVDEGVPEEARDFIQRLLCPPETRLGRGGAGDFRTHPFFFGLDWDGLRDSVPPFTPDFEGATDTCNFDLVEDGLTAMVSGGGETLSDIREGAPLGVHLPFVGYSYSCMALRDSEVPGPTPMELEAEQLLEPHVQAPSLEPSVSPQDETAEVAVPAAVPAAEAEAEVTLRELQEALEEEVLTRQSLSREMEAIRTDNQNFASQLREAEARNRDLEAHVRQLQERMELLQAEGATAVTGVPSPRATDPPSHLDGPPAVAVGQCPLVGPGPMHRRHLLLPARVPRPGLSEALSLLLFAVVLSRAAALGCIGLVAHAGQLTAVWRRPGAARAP
Description: as §1

Sequence of 363 human kinases (including Aurora A/B/C) (Homo sapiens, UniProt P09619) (P09619 33-1106): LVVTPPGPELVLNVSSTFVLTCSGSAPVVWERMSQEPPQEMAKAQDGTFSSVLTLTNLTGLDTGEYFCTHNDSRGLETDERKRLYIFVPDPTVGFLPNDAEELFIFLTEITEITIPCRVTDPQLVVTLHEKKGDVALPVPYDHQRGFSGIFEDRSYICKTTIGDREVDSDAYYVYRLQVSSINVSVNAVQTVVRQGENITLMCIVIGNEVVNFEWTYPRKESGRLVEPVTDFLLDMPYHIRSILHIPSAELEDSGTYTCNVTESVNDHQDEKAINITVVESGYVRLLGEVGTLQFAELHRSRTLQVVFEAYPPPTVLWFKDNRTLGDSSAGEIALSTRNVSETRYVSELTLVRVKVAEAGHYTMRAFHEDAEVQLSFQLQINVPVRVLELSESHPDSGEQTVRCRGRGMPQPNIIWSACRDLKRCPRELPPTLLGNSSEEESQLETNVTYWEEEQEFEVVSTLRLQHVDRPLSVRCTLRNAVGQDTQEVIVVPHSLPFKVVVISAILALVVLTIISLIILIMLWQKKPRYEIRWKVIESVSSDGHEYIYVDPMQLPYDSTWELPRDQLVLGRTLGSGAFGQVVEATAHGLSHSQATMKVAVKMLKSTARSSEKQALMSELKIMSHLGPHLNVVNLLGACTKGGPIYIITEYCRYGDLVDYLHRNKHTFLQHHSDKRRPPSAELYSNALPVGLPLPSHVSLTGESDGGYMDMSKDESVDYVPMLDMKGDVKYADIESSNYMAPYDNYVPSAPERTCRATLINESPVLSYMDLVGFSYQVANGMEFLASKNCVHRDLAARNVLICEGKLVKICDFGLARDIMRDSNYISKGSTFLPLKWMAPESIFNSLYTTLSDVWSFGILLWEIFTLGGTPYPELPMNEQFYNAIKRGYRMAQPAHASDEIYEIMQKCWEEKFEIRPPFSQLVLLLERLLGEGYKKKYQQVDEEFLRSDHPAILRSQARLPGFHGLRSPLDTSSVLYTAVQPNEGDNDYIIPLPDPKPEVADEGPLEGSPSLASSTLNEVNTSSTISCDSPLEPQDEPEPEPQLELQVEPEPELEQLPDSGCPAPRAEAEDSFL
Sequence of 363 human kinases (including Aurora A/B/C) (Homo sapiens, UniProt Q04912) (Q04912 25-1400): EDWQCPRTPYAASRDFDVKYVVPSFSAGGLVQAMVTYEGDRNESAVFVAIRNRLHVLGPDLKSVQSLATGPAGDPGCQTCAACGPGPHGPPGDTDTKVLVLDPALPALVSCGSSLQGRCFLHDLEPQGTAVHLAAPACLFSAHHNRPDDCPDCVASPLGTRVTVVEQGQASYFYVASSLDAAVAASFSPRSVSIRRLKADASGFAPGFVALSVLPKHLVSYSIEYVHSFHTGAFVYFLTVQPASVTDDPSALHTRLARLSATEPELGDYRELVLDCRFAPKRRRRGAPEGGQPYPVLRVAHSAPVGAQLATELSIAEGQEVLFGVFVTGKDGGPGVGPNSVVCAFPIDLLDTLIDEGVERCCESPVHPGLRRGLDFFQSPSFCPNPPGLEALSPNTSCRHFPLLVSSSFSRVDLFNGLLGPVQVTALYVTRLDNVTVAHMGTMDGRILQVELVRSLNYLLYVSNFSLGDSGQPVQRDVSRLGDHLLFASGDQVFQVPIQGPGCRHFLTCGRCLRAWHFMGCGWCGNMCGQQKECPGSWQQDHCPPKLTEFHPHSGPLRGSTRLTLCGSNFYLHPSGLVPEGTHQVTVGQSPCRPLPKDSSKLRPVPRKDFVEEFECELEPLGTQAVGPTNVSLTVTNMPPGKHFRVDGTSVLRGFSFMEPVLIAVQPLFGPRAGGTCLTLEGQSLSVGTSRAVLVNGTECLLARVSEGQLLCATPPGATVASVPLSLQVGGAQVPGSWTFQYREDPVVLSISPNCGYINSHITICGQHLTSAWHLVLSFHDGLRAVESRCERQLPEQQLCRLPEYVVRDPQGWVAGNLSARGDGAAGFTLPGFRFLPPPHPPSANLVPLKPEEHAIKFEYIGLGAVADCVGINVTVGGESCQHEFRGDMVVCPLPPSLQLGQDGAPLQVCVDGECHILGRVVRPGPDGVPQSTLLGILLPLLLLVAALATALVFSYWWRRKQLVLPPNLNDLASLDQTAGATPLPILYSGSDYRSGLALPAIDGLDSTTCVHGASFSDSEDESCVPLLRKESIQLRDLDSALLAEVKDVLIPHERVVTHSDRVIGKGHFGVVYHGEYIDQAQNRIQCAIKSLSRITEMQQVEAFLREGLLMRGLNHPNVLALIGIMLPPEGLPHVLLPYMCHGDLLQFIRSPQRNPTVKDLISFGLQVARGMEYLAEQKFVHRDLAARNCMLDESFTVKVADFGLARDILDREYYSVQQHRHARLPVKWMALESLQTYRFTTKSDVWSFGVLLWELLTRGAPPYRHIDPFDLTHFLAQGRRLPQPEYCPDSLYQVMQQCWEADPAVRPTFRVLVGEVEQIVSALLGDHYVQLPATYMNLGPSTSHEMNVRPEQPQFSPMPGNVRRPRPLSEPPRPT

| Structure (SMILES) | remaining activity at 0.1 µM [1] [%] | remaining activity at 0.1 µM [2] [%] | remaining activity at 0.1 µM [3] [%] | remaining activity at 0.1 µM [4] [%] | remaining activity at 0.1 µM [5] [%] | remaining activity at 0.5 µM ([1]; 500 nM) [%] | remaining activity at 0.5 µM ([2]; 500 nM) [%] | remaining activity at 0.5 µM ([3]; 500 nM) [%] | remaining activity at 0.5 µM ([4]; 500 nM) [%] | remaining activity at 0.5 µM ([5]; 500 nM) [%] | % Enzyme Activity (relative to DMSO controls) ([1]; 500 nM) [%] | % Enzyme Activity (relative to DMSO controls) ([2]; 500 nM) [%] | % Enzyme Activity (relative to DMSO controls) ([3]; 500 nM) [%] | % Enzyme Activity (relative to DMSO controls) ([4]; 500 nM) [%] | % Enzyme Activity (relative to DMSO controls) ([5]; 500 nM) [%] |
| --- | --- | --- | --- | --- | --- | --- | --- | --- | --- | --- | --- | --- | --- | --- | --- |
| CCn1cc(-c2ccnc3[nH]c(-c4cccc(CN(C)C)c4)cc23)c(-c2ccc(NC(=O)N(C)C)cc2)n1 [GSK1070916] | 94.3 | 93.8 | 90.6 | 90.4 | 114 |  |  |  |  |  |  |  |  |  |  |
| O=C(O)[C@]1(Cc2cccc(Nc3nccs3)n2)CC[C@@H](Oc2cccc(Cl)c2F)CC1 [MK-5108] | 93 | 101 | 96.8 | 86.7 | 105 | 90.4 | 94.1 | 81.6 | 67.2 | 115 |  |  |  |  |  |
| O=C(c1cccc(Cl)c1F)N1CCN(Cc2cccc(Nc3nccs3)n2)CC1 [MK-8745] |  |  |  |  |  | 93 | 96.3 | 81.8 | 89.7 | 115 | 92.44 | 94.45 | 81.73 | 88.70 | 114.90 |
